Results taken from ChEMBL document CHEMBL3885861, “Open TG-GATES”.

Organism: Rattus norvegicus
Assay: Open TG-GATES - Regimen: Single
Format: toxicity, organism-based, Sprague-Dawley
Design: regimen Single, gender Male, age 6 weeks
Settings: in vivo, po, 0 mg/kg, route gavage, dose level Control; for APTT / Bas / Eos / Fbg / Hb / Ht / Lym / MCH / MCHC / MCV / Mono / Neu / PT / Plat / RBC / Ret / WBC: tissue Blood; for KIDNEY_L / KIDNEY_R / KIDNEY_TOTAL: tissue Kidney; for LIVER: tissue Liver; for A/G / ALP / ALT / AST / BUN / CRE / Ca / Cl / DBIL / GLC / IP / K / LDH / Na / PL / RALB / TBIL / TC / TG / TP / gamma-GTP: tissue Plasma

`O=C(N[C@H](CO)[C@H](O)c1ccc([N+](=O)[O-])cc1)C(Cl)Cl` [CHLORAMPHENICOL] was tested, and the TERMINAL_BW (3 h) was 223.3 g, the APTT (3 h) was 17.4 s and the Bas (3 h) was 0%. For the same compound, the Eos (3 h) was 1%, the Fbg (3 h) was 266.4 mg/dL and the Hb (3 h) was 13.2 g/dL. It also gave a Ht (3 h) of 38.7%, a Lym (3 h) of 79.8% and an MCH (3 h) of 21.8 pg. For the same compound, the MCHC (3 h) was 34.2%, the MCV (3 h) was 63.8 fL and the Mono (3 h) was 3.8%. It also gave a Neu (3 h) of 15.2%, a PT (3 h) of 14.3 s and a Plat (3 h) of 115.3 x10_4/uL. The RBC (3 h) was 607 x10_4/ul, the Ret (3 h) was 8.3% and the WBC (3 h) was 80.9 x10_2/uL. For the same compound, the KIDNEY_L (3 h) was 0.9 g, the KIDNEY_R (3 h) was 0.9 g and the KIDNEY_TOTAL (3 h) was 1.8 g. The LIVER (3 h) was 10.1 g, the A/G (3 h) was 0.9 and the ALP (3 h) was 1566 IU/L. It also gave an ALT (3 h) of 41.4 IU/L, an AST (3 h) of 73.8 IU/L and a BUN (3 h) of 9.4 mg/dL. The CRE (3 h) was 0.2 mg/dL, the Ca (3 h) was 11.6 mg/dL and the Cl (3 h) was 105 meq/L. It also gave a DBIL (3 h) of 0.012 mg/dL, a GLC (3 h) of 184.2 mg/dL and an IP (3 h) of 8.6 mg/dL. For the same compound, the K (3 h) was 4.2 meq/L, the LDH (3 h) was 57.6 IU/L and the Na (3 h) was 139.8 meq/L. It also gave a PL (3 h) of 136.2 mg/dL, an RALB (3 h) of 2.5 g/dL and a TBIL (3 h) of 0.062 mg/dL. It also gave a TC (3 h) of 74.6 mg/dL, a TG (3 h) of 66.4 mg/dL and a TP (3 h) of 5.3 g/dL. The gamma-GTP (3 h) was 1.2 IU/L, the TERMINAL_BW (6 h) was 222.3 g and the APTT (6 h) was 17.1 s. It also gave a Bas (6 h) of 0%, an Eos (6 h) of 0.8% and a Fbg (6 h) of 262.8 mg/dL. The Hb (6 h) was 13.3 g/dL, the Ht (6 h) was 42.9% and the Lym (6 h) was 72.2%. The MCH (6 h) was 21.6 pg, the MCHC (6 h) was 30.9% and the MCV (6 h) was 70.1 fL. For the same compound, the Mono (6 h) was 2.6%, the Neu (6 h) was 24.2% and the PT (6 h) was 14.6 s. It also gave a Plat (6 h) of 109 x10_4/uL, an RBC (6 h) of 613.2 x10_4/ul and a Ret (6 h) of 8.2%. It also gave a WBC (6 h) of 60.2 x10_2/uL, a KIDNEY_L (6 h) of 0.9 g and a KIDNEY_R (6 h) of 0.9 g. It also gave a KIDNEY_TOTAL (6 h) of 1.8 g, an LIVER (6 h) of 9.4 g and an A/G (6 h) of 0.9. It also gave an ALP (6 h) of 1343.8 IU/L, an ALT (6 h) of 38.8 IU/L and an AST (6 h) of 71.2 IU/L. For the same compound, the BUN (6 h) was 8.8 mg/dL, the CRE (6 h) was 0.2 mg/dL and the Ca (6 h) was 11.6 mg/dL. For the same compound, the Cl (6 h) was 105.2 meq/L, the DBIL (6 h) was 0.014 mg/dL and the GLC (6 h) was 187.6 mg/dL. The IP (6 h) was 10.4 mg/dL, the K (6 h) was 4.2 meq/L and the LDH (6 h) was 62.8 IU/L. The Na (6 h) was 141.8 meq/L, the PL (6 h) was 136.2 mg/dL and the RALB (6 h) was 2.5 g/dL. The TBIL (6 h) was 0.064 mg/dL, the TC (6 h) was 73.6 mg/dL and the TG (6 h) was 72.2 mg/dL. It also gave a TP (6 h) of 5.5 g/dL, a gamma-GTP (6 h) of 1.4 IU/L and a TERMINAL_BW (9 h) of 222.7 g. It also gave an APTT (9 h) of 16.3 s, a Bas (9 h) of 0% and an Eos (9 h) of 1%. The Fbg (9 h) was 256.4 mg/dL, the Hb (9 h) was 13.5 g/dL and the Ht (9 h) was 42.9%. It also gave a Lym (9 h) of 71.2%, an MCH (9 h) of 21.5 pg and an MCHC (9 h) of 31.5%. It also gave an MCV (9 h) of 68.1 fL, a Mono (9 h) of 2.6% and a Neu (9 h) of 25%. The PT (9 h) was 14.5 s, the Plat (9 h) was 114.3 x10_4/uL and the RBC (9 h) was 630.2 x10_4/ul. For the same compound, the Ret (9 h) was 8.4%, the WBC (9 h) was 69.8 x10_2/uL and the KIDNEY_L (9 h) was 0.9 g. For the same compound, the KIDNEY_R (9 h) was 0.9 g, the KIDNEY_TOTAL (9 h) was 1.9 g and the LIVER (9 h) was 8.8 g. For the same compound, the A/G (9 h) was 0.9, the ALP (9 h) was 1165.4 IU/L and the ALT (9 h) was 36 IU/L. For the same compound, the AST (9 h) was 67.8 IU/L, the BUN (9 h) was 8.6 mg/dL and the CRE (9 h) was 0.2 mg/dL. The Ca (9 h) was 11.2 mg/dL, the Cl (9 h) was 105.4 meq/L and the DBIL (9 h) was 0.012 mg/dL. For the same compound, the GLC (9 h) was 192.6 mg/dL, the IP (9 h) was 10.4 mg/dL and the K (9 h) was 4.1 meq/L. The LDH (9 h) was 74.4 IU/L, the Na (9 h) was 140.6 meq/L and the PL (9 h) was 145.8 mg/dL. The RALB (9 h) was 2.5 g/dL, the TBIL (9 h) was 0.068 mg/dL and the TC (9 h) was 81.4 mg/dL. The TG (9 h) was 49.6 mg/dL, the TP (9 h) was 5.4 g/dL and the gamma-GTP (9 h) was 1 IU/L. For the same compound, the TERMINAL_BW (24 h) was 230.2 g, the APTT (24 h) was 16.1 s and the Bas (24 h) was 0%. It also gave an Eos (24 h) of 1%, a Fbg (24 h) of 264 mg/dL and a Hb (24 h) of 13 g/dL. For the same compound, the Ht (24 h) was 40.9%, the Lym (24 h) was 80.6% and the MCH (24 h) was 21.3 pg. It also gave an MCHC (24 h) of 31.9%, an MCV (24 h) of 66.6 fL and a Mono (24 h) of 2.8%. It also gave a Neu (24 h) of 15.2%, a PT (24 h) of 14.3 s and a Plat (24 h) of 120.8 x10_4/uL. The RBC (24 h) was 614.4 x10_4/ul, the Ret (24 h) was 7.6% and the WBC (24 h) was 87.8 x10_2/uL. The KIDNEY_L (24 h) was 1 g, the KIDNEY_R (24 h) was 1 g and the KIDNEY_TOTAL (24 h) was 2 g. It also gave an LIVER (24 h) of 11.2 g, an A/G (24 h) of 0.9 and an ALP (24 h) of 1650.8 IU/L. For the same compound, the ALT (24 h) was 48.2 IU/L, the AST (24 h) was 77 IU/L and the BUN (24 h) was 15.4 mg/dL. The CRE (24 h) was 0.2 mg/dL, the Ca (24 h) was 11.7 mg/dL and the Cl (24 h) was 103.6 meq/L. For the same compound, the DBIL (24 h) was 0.012 mg/dL, the GLC (24 h) was 191.6 mg/dL and the IP (24 h) was 8.8 mg/dL. The K (24 h) was 4.1 meq/L, the LDH (24 h) was 88.8 IU/L and the Na (24 h) was 141.2 meq/L. It also gave a PL (24 h) of 155.2 mg/dL, an RALB (24 h) of 2.6 g/dL and a TBIL (24 h) of 0.056 mg/dL. For the same compound, the TC (24 h) was 86.8 mg/dL, the TG (24 h) was 72.6 mg/dL and the TP (24 h) was 5.6 g/dL. It also gave a gamma-GTP (24 h) of 1.2 IU/L.
